For data set [1], the system named is neutrophils in the myocardium. The experiment in a line: Neutrophil count in heart sections following the heart attack procedure. It is filed as in vivo, mice. Particulars: vs saline treated animals. As for the experimental part: (§1) For the myocardial infarction model, open chest ligation of the left descending coronary artery (LAD ligation) was performed in mice. At 55 minutes post initiation of ischemia, either vehicle or test agent was injected into the femoral vein of each mouse. The heart muscle was reperfused by releasing the ligature at 60 minutes post initiation of ischemia. Mice were then sacrificed at either 2 hours or 2 days post reperfusion for infarct size measurement and blood analysis or heart function assays, respectively, as described below.
In order to determine whether NaHSe decreased inflammation in the hearts of animals following the heart attack procedure, neutrophils were counted in sections of hearts of saline and NaHSe treated animals.

Data set [2] deals with mouse model of heart attack (heart function). Briefly: Echocardiography 2 days post the heart attack procedure. The class given is in vivo, mice. Particulars: 800 μg/kg; 48 hours of reperfusion after 60 min LAD ligation; vs saline. The method, then: as §1
To further test the hypothesis that NaHSe improves outcome following myocardial infarction, mice were survived for 2 days post the heart attack procedure and then subjected to echocardiography.

Data set [3] relates to mouse model of heart attack (myocardial ischemia and reperfusion). The experiment in a line: Infarct size by morphometry (TTC and Evans blue) after LAD ligation and 2 hours of reperfusion. It is filed as in vivo, mice. The method, then: as §1
In order to examine the effect of NaHSe on myocardial infarct size, mice were subjected to LAD ligation, and after 2 hours of reperfusion, infarct size was measured by morphometry (FIG. 1). Six groups of mice were utilized in this study, including a saline vehicle group and five test groups that received 50, 200, 800, 1600 and 2400 μg/kg of NaHSe. To be certain that all animals in the study were treated in a similar way, the area at risk (AAR) as a proportion of the left ventricle was determined (FIG. 1, left panel).
Area at risk and infarct size (Inf) were measured using the specific dyes TTC and Evans blue. Processed images were generated in an unbiased way by setting constant thresholds and allowing Photoshop® to generate the images that were quantitated to generate FIG. 1.

Data set [4] has as its system cardiac troponin I. The experiment in a line: Plasma cardiac troponin I by ELISA after LAD ligation and 2 hour reperfusion. It is filed as in vivo, mice. The following applies: end of 2 hour reperfusion. As for the experimental part:
as §1
To provide an independent means of testing for improvement, the level of a heart specific protein, cardiac troponin I, was assessed in the blood of the animals after the 2 hour reperfusion period. Five minutes prior to reperfusion, three groups of mice were given 200 μg/kg NaHSe, 50 μg/kg NaHSe, or saline by I.V. injection through the femoral vein. At the end of the 2 hour reperfusion, blood was collected and plasma cardiac troponin I was measured by ELISA.

Data set [5] deals with glutathione peroxidase 2 (GPX-2). Briefly: Antibody staining of heart sections for glutathione peroxidase 2. The class given is in vivo, mice. Particulars: 800 μg/kg; compared to saline and sham (no heart attack) animals. The method, then:
as §1
Therefore, the hypothesis that the therapeutic value of sodium selenide is its accumulation in cardiomycytes during reperfusion for the synthesis of selenoproteins, such as glutathione peroxidase, was tested. Heart sections from animals that were saline treated or NaHSe (800 μg/kg) treated were stained with an antibody specific for the selenoprotein glutathione peroxidase 2 (GPX-2).

The nature of data set [6]: Oxidation of selenide solutions in water or glutathione, observed visually. It is filed as physicochemical. Particulars: 50 mM selenide in 150 mM GSH vs in water; 8 minutes immediately following preparation.

Regarding `[SeH2]` [NaHSe], the “accumulation of neutrophils in the myocardium” value in data set [1] is “significantly reduced”. Besides, in data set [2], the fractional shortening entry is “statistically significant improvement” and the “left ventricular ejection fraction” value is on record as “statistically significant improvement”. Also, the “benefit relative to infarct size vs saline” value in data set [3] (800 μg/kg (0.8 mg/kg) at reperfusion, selenide vs selenite comparison (FIG. 6)) is “provided benefit”. In addition, the “reduction in infarct size in comparison to vehicle alone” value in data set [3] (800 μg/kg I.V. femoral vein 5 min prior to reperfusion, 60 min LAD ligation, 2 hours reperfusion) is given as 88%. Moreover, the “infarct size vs saline group” value in data set [3] (50, 200, 800, 1600 and 2400 μg/kg I.V. 5 min prior to reperfusion, 2 hours reperfusion) was “statistically significant dose dependent decreases”. For the same molecule, the “plasma cardiac troponin I compared to saline control” value in data set [4] (50 μg/kg I.V. 5 min prior to reperfusion) is reported as “statistically significant decrease”. Also, in data set [4] (200 μg/kg I.V. 5 min prior to reperfusion), the “plasma cardiac troponin I compared to saline control” value is “statistically significant decrease”. Further, in data set [5], the “GPX-2 antibody staining of heart sections” value was “striking increase”. Besides, the “oxidation of selenide (dark oxidized forms in solution)” value in data set [6] is listed as “reduced levels of oxidation”.

The values are drawn from patent publication US20150290240A1 (Fred Hulchinson Cancer Research Center, priority 2012, published 2015).
